Results from PubChem BioAssay (NCI).
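Abbreviation: GI50, concentration required for 50% inhibition of growth. Definition used: TGI = concentration required for complete inhibition of growth.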

Tests used:
Test in all cases: NCI-60 cell line screen, 384-well format
786-0 renal = test system: 786-0 renal
A498 renal = test system: A498 renal
A549 NSCLC = test system: A549 NSCLC
ACHN renal = test system: ACHN renal
BT-549 breast = test system: BT-549 breast
CAKI-1 renal = test system: CAKI-1 renal
CCRF-CEM leukemia = test system: CCRF-CEM leukemia
COLO 205 colon = test system: COLO 205 colon
DU-145 prostate = test system: DU-145 prostate
HCC-2998 colon = test system: HCC-2998 colon
HCT-116 colon = test system: HCT-116 colon
HCT-15 colon = test system: HCT-15 colon
HL-60(TB) leukemia = test system: HL-60(TB) leukemia
HOP-62 NSCLC = test system: HOP-62 NSCLC
HOP-92 NSCLC = test system: HOP-92 NSCLC
HT29 colon = test system: HT29 colon
IGROV1 ovarian = test system: IGROV1 ovarian
K-562 leukemia = test system: K-562 leukemia
KM12 colon = test system: KM12 colon
LOX IMVI melanoma = test system: LOX IMVI melanoma
M14 melanoma = test system: M14 melanoma
MCF7 breast = test system: MCF7 breast
MDA-MB-468 breast = test system: MDA-MB-468 breast
NCI-H226 lung = test system: NCI-H226 lung
NCI-H23 lung = test system: NCI-H23 lung
NCI-H460 NSCLC = test system: NCI-H460 NSCLC
NCI-H522 lung = test system: NCI-H522 lung
NCI/ADR-RES ovarian = test system: NCI/ADR-RES ovarian
OVCAR-3 ovarian = test system: OVCAR-3 ovarian
OVCAR-8 ovarian = test system: OVCAR-8 ovarian
RPMI-8226 leukemia = test system: RPMI-8226 leukemia
SF-268 CNS = test system: SF-268 CNS
SF-295 CNS = test system: SF-295 CNS
SF-539 CNS = test system: SF-539 CNS
SK-MEL-2 melanoma = test system: SK-MEL-2 melanoma
SK-MEL-28 melanoma = test system: SK-MEL-28 melanoma
SK-MEL-5 melanoma = test system: SK-MEL-5 melanoma
SK-OV-3 ovarian = test system: SK-OV-3 ovarian
SN12C renal = test system: SN12C renal
SNB-19 CNS = test system: SNB-19 CNS
SNB-75 CNS = test system: SNB-75 CNS
SR leukemia = test system: SR leukemia
SW-620 colon = test system: SW-620 colon
U251 glioblastoma = test system: U251 glioblastoma
UACC-257 melanoma = test system: UACC-257 melanoma
UACC-62 melanoma = test system: UACC-62 melanoma
UO-31 renal = test system: UO-31 renal

In the case of Nc1ccn(C2OC(CO)C(O)C2O)c(=O)n1 (stereo not drawn), the GI50 ([…]-0 renal) is reported as 218 nM, the GI50 (A498 renal) is reported as 270 nM and the GI50 (A549 NSCLC) is reported as 75.1 nM. It also gave a GI50 (ACHN renal) of 196 nM, a TGI (ACHN renal) of 1110 nM and a GI50 (BT-549 breast) of 602 nM. The GI50 (CAKI-1 renal) was 446 nM, the GI50 (CCRF-CEM leukemia) was under 13.7 nM and the TGI (CCRF-CEM leukemia) was 20.5 nM. The GI50 (COLO 205 colon) was 58.8 nM, the TGI (COLO 205 colon) was 2640 nM and the GI50 (DU-145 prostate) was 501 nM. For the same molecule, the TGI (DU-145 prostate) was over 30.8 µM, the GI50 (HCC-2998 colon) was 84.7 nM and the GI50 (HCT-116 colon) was 69.5 nM. The GI50 (HCT-15 colon) was 328 nM, the GI50 (HL-60(TB) leukemia) was 182 nM and the TGI (HL-60(TB) leukemia) was 759 nM. The GI50 (HOP-62 NSCLC) was 63.9 nM, the TGI (HOP-62 NSCLC) was 706 nM and the GI50 (HOP-92 NSCLC) was 10.6 µM. It also gave a GI50 (HT29 colon) of 1480 nM, a GI50 (IGROV1 ovarian) of 2390 nM and a GI50 (K-562 leukemia) of 155 nM. It also gave a GI50 (KM12 colon) of 6.67 µM, a GI50 (LOX IMVI melanoma) of 286 nM and a TGI (LOX IMVI melanoma) of 9.95 µM. For the same molecule, the GI50 (M14 melanoma) was 148 nM, the TGI (M14 melanoma) was 1950 nM and the GI50 (MCF7 breast) was 99.1 nM. For the same molecule, the GI50 (MDA-MB-468 breast) was 1140 nM, the GI50 (NCI-H226 lung) was 1740 nM and the GI50 (NCI-H23 lung) was 106 nM. For the same molecule, the TGI (NCI-H23 lung) was 1010 nM, the GI50 (NCI-H460 NSCLC) was 34.3 nM and the TGI (NCI-H460 NSCLC) was 366 nM. It also gave a GI50 (NCI-H522 lung) of 85.8 nM, a GI50 (NCI/ADR-RES ovarian) of 446 nM and a GI50 (OVCAR-3 ovarian) of 6.7 µM. The GI50 (OVCAR-8 ovarian) was 102 nM, the GI50 (RPMI-8226 leukemia) was 3.49 µM and the GI50 (SF-268 CNS) was 1030 nM. For the same molecule, the GI50 (SF-295 CNS) was 2140 nM, the TGI (SF-295 CNS) was 12 µM and the GI50 (SF-539 CNS) was 1800 nM. For the same molecule, the TGI (SF-539 CNS) was over 95.6 µM, the GI50 (SK-MEL-2 melanoma) was over 21.4 µM and the GI50 (SK-MEL-28 melanoma) was 171 nM. The GI50 (SK-MEL-5 melanoma) was 249 nM, the TGI (SK-MEL-5 melanoma) was 790 nM and the GI50 (SK-OV-3 ovarian) was 1890 nM. For the same molecule, the GI50 (SN12C renal) was 1240 nM, the GI50 (SNB-19 CNS) was 738 nM and the TGI (SNB-19 CNS) was over 27.2 µM. It also gave a GI50 (SNB-75 CNS) of 8.64 µM, a GI50 (SR leukemia) of 103 nM and a TGI (SR leukemia) of 235 nM. The GI50 (SW-620 colon) was 581 nM, the GI50 (U251 glioblastoma) was 1060 nM and the GI50 (UACC-257 melanoma) was 2230 nM. The TGI (UACC-257 melanoma) was over 42.5 µM, the GI50 (UACC-62 melanoma) was 732 nM and the GI50 (UO-31 renal) was 406 nM.
